Experimental data from publication PMC5218480 (PLoS ONE, 2017).

System: MV-4-11 cells
Test: Gene expression microarray analysis (Affymetrix PrimeView) and GSEA
Format: cell-based, human
Set-up: RFU PODN (11730768_x_at) / Fold change /veh PODN (11730768_x_at) / RFU LINC00158 (11744669_a_at) / Fold change /veh LINC00158 (11744669_a_at) / RFU DUSP10 (11751237_a_at) / Fold change /veh DUSP10 (11751237_a_at) / RFU ID3 (11757404_x_at) / Fold change /veh ID3 (11757404_x_at) / RFU PLEKHG5 (11737974_s_at) / Fold change /veh PLEKHG5 (11737974_s_at) / RFU LRRC4B (11730491_at) / Fold change /veh LRRC4B (11730491_at) / RFU GIMAP4 (11747438_a_at) / Fold change /veh GIMAP4 (11747438_a_at) / RFU KRT8 (11758183_x_at) / Fold change /veh KRT8 (11758183_x_at) / RFU CNN1 (11734310_a_at) / Fold change /veh CNN1 (11734310_a_at) / RFU VPS37D (11726825_at) / Fold change /veh VPS37D (11726825_at) / RFU C10orf10 (11716522_x_at) / Fold change /veh C10orf10 (11716522_x_at) / RFU KIR2DL2 /// KIR2DL4 /// KIR2DL5A /// KIR2DL5B /// KIR2DS1 /// KIR2DS2 /// KIR2DS3 /// KIR2DS4 /// KIR3DL3 /// KIR3DL3 /// KIR3DS1 (11738374_at) / Fold change /veh KIR2DL2 /// KIR2DL4 /// KIR2DL5A /// KIR2DL5B /// KIR2DS1 /// KIR2DS2 /// KIR2DS3 /// KIR2DS4 /// KIR3DL3 /// KIR3DL3 /// KIR3DS1 (11738374_at) / RFU C1QL1 (11718748_at) / Fold change /veh C1QL1 (11718748_at) / RFU TMPRSS4 (11747572_a_at) / Fold change /veh TMPRSS4 (11747572_a_at) / RFU HAMP (11756126_x_at) / Fold change /veh HAMP (11756126_x_at) / RFU RNFT2 (11725882_a_at) / Fold change /veh RNFT2 (11725882_a_at) / RFU NR4A2 (11747474_a_at) / Fold change /veh NR4A2 (11747474_a_at) / RFU ABCC12 (11746883_a_at) / Fold change /veh ABCC12 (11746883_a_at) / RFU TMEM136 (11760407_x_at) / Fold change /veh TMEM136 (11760407_x_at) / RFU CLDN22 /// WWC2 (11732394_at) / Fold change /veh CLDN22 /// WWC2 (11732394_at) / RFU HLA-DPB1 (11760878_x_at) / Fold change /veh HLA-DPB1 (11760878_x_at) / RFU SPINT1 (11716480_a_at) / Fold change /veh SPINT1 (11716480_a_at) / RFU GAP43 (11754022_s_at) / Fold change /veh GAP43 (11754022_s_at) / RFU A4GNT (11735810_at) / Fold change /veh A4GNT (11735810_at) / RFU PRB3 (11715151_x_at) / Fold change /veh PRB3 (11715151_x_at) / RFU TUBB4B (11761932_at) / Fold change /veh TUBB4B (11761932_at) / RFU CAPN14 (11732068_a_at) / Fold change /veh CAPN14 (11732068_a_at) / RFU TMCC2 (11721928_a_at) / Fold change /veh TMCC2 (11721928_a_at) / RFU IRGQ (11745062_a_at) / Fold change /veh IRGQ (11745062_a_at) / RFU FAM174B (11720279_a_at) / Fold change /veh FAM174B (11720279_a_at) / RFU TMPRSS4 (11748680_a_at) / Fold change /veh TMPRSS4 (11748680_a_at) / RFU FAM212B (11763350_a_at) / Fold change /veh FAM212B (11763350_a_at) / RFU PLEKHG5 (11743358_a_at) / Fold change /veh PLEKHG5 (11743358_a_at) / RFU ZSCAN30 (11745921_a_at) / Fold change /veh ZSCAN30 (11745921_a_at) / RFU CMKLR1 (11741424_a_at) / Fold change /veh CMKLR1 (11741424_a_at) / RFU LOC101060620 /// MAPK8IP1 (11723275_at) / Fold change /veh LOC101060620 /// MAPK8IP1 (11723275_at) / RFU SPTSSB (11747773_x_at) / Fold change /veh SPTSSB (11747773_x_at) / RFU PRSS12 (11739890_at) / Fold change /veh PRSS12 (11739890_at) / RFU BIN1 (11741810_x_at) / Fold change /veh BIN1 (11741810_x_at) / RFU WNT11 (11732464_a_at) / Fold change /veh WNT11 (11732464_a_at) / RFU C10orf10 (11716521_a_at) / Fold change /veh C10orf10 (11716521_a_at) / RFU C5orf56 (11738089_at) / Fold change /veh C5orf56 (11738089_at) / RFU CYB561 (11721691_x_at) / Fold change /veh CYB561 (11721691_x_at) / RFU ANKRD19P (11752326_a_at) / Fold change /veh ANKRD19P (11752326_a_at) / RFU OR2T12 /// OR2T33 /// OR2T8 (11738714_s_at) / Fold change /veh OR2T12 /// OR2T33 /// OR2T8 (11738714_s_at) / RFU VCAN (11748164_a_at) / Fold change /veh VCAN (11748164_a_at) / RFU JSRP1 (11732532_at) / Fold change /veh JSRP1 (11732532_at) / RFU KRTAP10-11 (11738290_x_at) / Fold change /veh KRTAP10-11 (11738290_x_at) / RFU MYO3A (11730013_a_at) / Fold change /veh MYO3A (11730013_a_at) / RFU EBF3 (11725865_a_at) / Fold change /veh EBF3 (11725865_a_at) / RFU CAMK2N1 (11719241_x_at) / Fold change /veh CAMK2N1 (11719241_x_at) / RFU C5orf56 (11738088_a_at) / Fold change /veh C5orf56 (11738088_a_at) / RFU OLFML3 (11715873_a_at) / Fold change /veh OLFML3 (11715873_a_at) / RFU LOC100653217 /// NTM (11731650_a_at) / Fold change /veh LOC100653217 /// NTM (11731650_a_at) / RFU MAPK11 (11762145_a_at) / Fold change /veh MAPK11 (11762145_a_at) / RFU FIZ1 (11724087_x_at) / Fold change /veh FIZ1 (11724087_x_at) / RFU OASL (11726364_x_at) / Fold change /veh OASL (11726364_x_at) / RFU SOX15 (11748057_x_at) / Fold change /veh SOX15 (11748057_x_at) / RFU CD79A (11719716_a_at) / Fold change /veh CD79A (11719716_a_at) / RFU HIST1H1D (11736915_at) / Fold change /veh HIST1H1D (11736915_at) / RFU CASKIN2 (11723855_a_at) / Fold change /veh CASKIN2 (11723855_a_at) / RFU LOC730098 (11760151_x_at) / Fold change /veh LOC730098 (11760151_x_at) / RFU OR4N2 (11742367_at) / Fold change /veh OR4N2 (11742367_at) / RFU PRRT2 (11749266_a_at) / Fold change /veh PRRT2 (11749266_a_at) / RFU SNX32 (11753110_a_at) / Fold change /veh SNX32 (11753110_a_at) / RFU CDHR5 (11726645_a_at) / Fold change /veh CDHR5 (11726645_a_at) / RFU RCAN1 (11760418_a_at) / Fold change /veh RCAN1 (11760418_a_at) / RFU FAM167A (11723789_a_at) / Fold change /veh FAM167A (11723789_a_at) / RFU FAM26E (11764081_at) / Fold change /veh FAM26E (11764081_at) / RFU ISYNA1 (11749810_s_at) / Fold change /veh ISYNA1 (11749810_s_at) / RFU ACY1 (11761880_at) / Fold change /veh ACY1 (11761880_at) / RFU 11764098_at / Fold change /veh 11764098_at / RFU SAMD14 (11745864_x_at) / Fold change /veh SAMD14 (11745864_x_at) / RFU NPB (11741838_a_at) / Fold change /veh NPB (11741838_a_at) / RFU TMPRSS6 (11731388_a_at) / Fold change /veh TMPRSS6 (11731388_a_at) / RFU KRTAP10-2 (11738614_at) / Fold change /veh KRTAP10-2 (11738614_at) / RFU ARHGAP8 /// PRR5-ARHGAP8 (11727945_x_at) / Fold change /veh ARHGAP8 /// PRR5-ARHGAP8 (11727945_x_at) / RFU KRTAP5-7 /// NADSYN1 (11734609_at) / Fold change /veh KRTAP5-7 /// NADSYN1 (11734609_at) / RFU RASL12 (11751679_a_at) / Fold change /veh RASL12 (11751679_a_at) / RFU CDKN2B (11736163_a_at) / Fold change /veh CDKN2B (11736163_a_at) / RFU PRF1 (11729649_at) / Fold change /veh PRF1 (11729649_at) / RFU, ZNF638 /// ZNF638-IT1 / Fold change vs veh, ZNF638 /// ZNF638-IT1 / RFU, PANK3 / Fold change vs veh, PANK3 / RFU, SH3YL1 / Fold change vs veh, SH3YL1 / RFU, ZEB2 / Fold change vs veh, ZEB2 / RFU, NRIP1 / Fold change vs veh, NRIP1 / RFU, PTTG1IP / Fold change vs veh, PTTG1IP / RFU, CAPN2 / Fold change vs veh, CAPN2 / RFU, MED14 / Fold change vs veh, MED14 / RFU, SNORA58 / Fold change vs veh, SNORA58 / RFU, C1orf63 / Fold change vs veh, C1orf63 / RFU, LRRFIP1 / Fold change vs veh, LRRFIP1 / RFU, NDUFAF7 / Fold change vs veh, NDUFAF7 / RFU, SLC12A2 / Fold change vs veh, SLC12A2 / RFU, IBTK / Fold change vs veh, IBTK / RFU, ESF1 / Fold change vs veh, ESF1 / Fold change vs veh, TMEM50B / RFU, TAOK1 / Fold change vs veh, TAOK1 / RFU, ACBD3 / Fold change vs veh, ACBD3 / RFU, TMA16 / Fold change vs veh, TMA16 / RFU, RWDD3 / Fold change vs veh, RWDD3 / RFU, BCAT1 / Fold change vs veh, BCAT1 / RFU, EDEM3 / Fold change vs veh, EDEM3 / RFU, TMEM33 / Fold change vs veh, TMEM33 / RFU, WDR75 / Fold change vs veh, WDR75 / RFU, AHCTF1 / Fold change vs veh, AHCTF1 / RFU, TFRC / Fold change vs veh, TFRC / RFU, ZDHHC17 / Fold change vs veh, ZDHHC17 / RFU, NOM1 / Fold change vs veh, NOM1 / RFU, ARL8B / Fold change vs veh, ARL8B / RFU, ZBTB11 / Fold change vs veh, ZBTB11 / RFU, TAMM41 / Fold change vs veh, TAMM41 / RFU, KIAA1704 /// LOC100996395 / Fold change vs veh, KIAA1704 /// LOC100996395 / RFU, ING1 / Fold change vs veh, ING1 / RFU, TRMT61B / Fold change vs veh, TRMT61B / RFU, FUBP3 / Fold change vs veh, FUBP3 / RFU, TP53 / Fold change vs veh, TP53 / RFU, TNKS2 / Fold change vs veh, TNKS2 / RFU, ZFP14 / Fold change vs veh, ZFP14 / RFU, ACTR2 / Fold change vs veh, ACTR2 / RFU, PPP3R1 / Fold change vs veh, PPP3R1 / RFU, PIK3R1 / Fold change vs veh, PIK3R1 / RFU, HNRNPA1 / Fold change vs veh, HNRNPA1 / RFU, RNF170 / Fold change vs veh, RNF170 / RFU, ZNF28 / Fold change vs veh, ZNF28 / RFU, RNGTT / Fold change vs veh, RNGTT / RFU, OGT / Fold change vs veh, OGT / RFU, BRD1 / Fold change vs veh, BRD1 / RFU, MARS / Fold change vs veh, MARS / RFU, ZNF655 / Fold change vs veh, ZNF655 / RFU, FAHD1 / Fold change vs veh, FAHD1 / RFU, BDP1 / Fold change vs veh, BDP1 / RFU, LRRCC1 / Fold change vs veh, LRRCC1 / RFU, ARID1A / Fold change vs veh, ARID1A / RFU, ZNF146 / Fold change vs veh, ZNF146 / RFU, ZNF330 / Fold change vs veh, ZNF330 / RFU, GPN3 / Fold change vs veh, GPN3 / RFU, C9orf123 / Fold change vs veh, C9orf123 / RFU, N4BP2L2 / Fold change vs veh, N4BP2L2 / RFU, ARFIP1 / Fold change vs veh, ARFIP1 / RFU, FAM179B / Fold change vs veh, FAM179B / RFU, BCL10 / Fold change vs veh, BCL10 / RFU, UHRF1BP1L / Fold change vs veh, UHRF1BP1L / RFU, BET1 / Fold change vs veh, BET1 / RFU, CNOT2 / Fold change vs veh, CNOT2 / RFU, ZNF268 / Fold change vs veh, ZNF268 / Fold change vs veh, ZNF507 / RFU, DGCR2 / Fold change vs veh, DGCR2 / RFU, WDSUB1 / Fold change vs veh, WDSUB1 / Fold change vs veh, HSP90B1 /// MIR3652 / RFU, ADSS / Fold change vs veh, ADSS / RFU, GK / Fold change vs veh, GK / RFU, ZNF148 / Fold change vs veh, ZNF148 / RFU, TAF9 / Fold change vs veh, TAF9 / RFU, SLC1A5 / Fold change vs veh, SLC1A5 / RFU, SLMO2 / Fold change vs veh, SLMO2 / RFU, ABCC4 / Fold change vs veh, ABCC4 / RFU, LOC101060439 /// RAP1B / Fold change vs veh, LOC101060439 /// RAP1B / RFU, RFX7 / Fold change vs veh, RFX7 / RFU, GTPBP10 / Fold change vs veh, GTPBP10 / RFU, CNEP1R1 / Fold change vs veh, CNEP1R1 / RFU, BIVM-ERCC5 /// ERCC5 / Fold change vs veh, BIVM-ERCC5 /// ERCC5 / RFU, ILF3 / Fold change vs veh, ILF3 / RFU 11762660_at / Fold change /veh 11762660_at / RFU VCAN (11757783_s_at) / Fold change /veh VCAN (11757783_s_at) / RFU DDX43 (11728927_at) / Fold change /veh DDX43 (11728927_at) / RFU KRT8 (11758188_x_at) / Fold change /veh KRT8 (11758188_x_at) / RFU NKD1 (11759106_at) / Fold change /veh NKD1 (11759106_at) / RFU SRD5A1 (11742802_a_at) / Fold change /veh SRD5A1 (11742802_a_at) / RFU TPSAB1 /// TPSB2 (11721975_s_at) / Fold change /veh TPSAB1 /// TPSB2 (11721975_s_at) / RFU GSTM3 (11746129_a_at) / Fold change /veh GSTM3 (11746129_a_at) / RFU IL23R (11737362_x_at) / Fold change /veh IL23R (11737362_x_at) / RFU TMEM51 (11727254_a_at) / Fold change /veh TMEM51 (11727254_a_at) / RFU PIWIL2 (11732686_x_at) / Fold change /veh PIWIL2 (11732686_x_at) / RFU ORM1 (11744905_x_at) / Fold change /veh ORM1 (11744905_x_at) / RFU CCDC152 (11743942_at) / Fold change /veh CCDC152 (11743942_at) / RFU ECM1 (11717891_a_at) / Fold change /veh ECM1 (11717891_a_at) / RFU IL23R (11748794_a_at) / Fold change /veh IL23R (11748794_a_at) / RFU TNFAIP8L3 (11732012_x_at) / Fold change /veh TNFAIP8L3 (11732012_x_at) / RFU MBOAT4 (11741988_at) / Fold change /veh MBOAT4 (11741988_at) / RFU 11764193_at / Fold change /veh 11764193_at / RFU TMEM53 (11763286_at) / Fold change /veh TMEM53 (11763286_at) / RFU MAGEB2 (11727129_at) / Fold change /veh MAGEB2 (11727129_at) / RFU TMEM200A (11744735_a_at) / Fold change /veh TMEM200A (11744735_a_at) / RFU CCDC152 (11751479_a_at) / Fold change /veh CCDC152 (11751479_a_at) / RFU FAM211A (11726209_a_at) / Fold change /veh FAM211A (11726209_a_at) / RFU RGS16 (11746705_a_at) / Fold change /veh RGS16 (11746705_a_at) / RFU VCAN (11755009_s_at) / Fold change /veh VCAN (11755009_s_at) / RFU RHOB (11743442_s_at) / Fold change /veh RHOB (11743442_s_at) / RFU RGS16 (11720943_a_at) / Fold change /veh RGS16 (11720943_a_at) / RFU RGS16 (11720944_at) / Fold change /veh RGS16 (11720944_at) / RFU, VPS4B / Fold change vs veh, VPS4B / RFU, CREB1 / Fold change vs veh, CREB1 / RFU, DNAJC13 / Fold change vs veh, DNAJC13 / RFU, GNAQ / Fold change vs veh, GNAQ / RFU, CDK5R1 / Fold change vs veh, CDK5R1 / RFU, ZRANB3 / Fold change vs veh, ZRANB3 / RFU, CUL4A / Fold change vs veh, CUL4A / RFU, CCNY / Fold change vs veh, CCNY / RFU, UFL1 / Fold change vs veh, UFL1 / RFU, COG3 / Fold change vs veh, COG3 / RFU, DIAPH2 / Fold change vs veh, DIAPH2 / RFU, SKA2 / Fold change vs veh, SKA2 / RFU, AFF3 / Fold change vs veh, AFF3 / RFU, LMF1 / Fold change vs veh, LMF1 / RFU, IPO11 / Fold change vs veh, IPO11 / RFU, DFFB / Fold change vs veh, DFFB / RFU, FOXP1 / Fold change vs veh, FOXP1 / RFU, CARD8 / Fold change vs veh, CARD8 / RFU, STRN3 / Fold change vs veh, STRN3 / RFU, ADK / Fold change vs veh, ADK / RFU, RASSF2 / Fold change vs veh, RASSF2 / RFU, WIPF1 / Fold change vs veh, WIPF1 / RFU, LARP1B / Fold change vs veh, LARP1B / RFU, RASA1 / Fold change vs veh, RASA1 / RFU, RB1 / Fold change vs veh, RB1 / RFU, PPFIA1 / Fold change vs veh, PPFIA1 / RFU, MAT2A / Fold change vs veh, MAT2A / RFU, CCT5 / Fold change vs veh, CCT5 / RFU, WDR92 / Fold change vs veh, WDR92 / RFU, CUX1 / Fold change vs veh, CUX1 / RFU, TTC7A / Fold change vs veh, TTC7A / RFU, TMEM135 / Fold change vs veh, TMEM135 / RFU, DEPTOR / Fold change vs veh, DEPTOR / RFU, CPM / Fold change vs veh, CPM / RFU, DNAJB6 / Fold change vs veh, DNAJB6 / RFU, CACNA2D3 / Fold change vs veh, CACNA2D3 / RFU, DTX4 / Fold change vs veh, DTX4 / RFU, TFCP2 / Fold change vs veh, TFCP2 / RFU, GMCL1 /// GMCL1P1 / Fold change vs veh, GMCL1 /// GMCL1P1 / RFU, AEBP2 / Fold change vs veh, AEBP2 / RFU, SNHG1 /// SNORD22 /// SNORD25 /// SNORD26 /// SNORD27 /// SNORD28 /// SNORD29 /// SNORD31 / Fold change vs veh, SNHG1 /// SNORD22 /// SNORD25 /// SNORD26 /// SNORD27 /// SNORD28 /// SNORD29 /// SNORD31 / Fold change (Aza/veh), C12orf56 (ProbeSet 11735607_a_at) / Fold change (ACY-1035/veh), C12orf56 (ProbeSet 11735607_a_at) / Fold change (Aza/veh), FGFR1OP (ProbeSet 11751329_s_at) / Fold change (ACY-1035/veh), FGFR1OP (ProbeSet 11751329_s_at) / Fold change (Aza/veh), VPS36 (ProbeSet 11739960_a_at) / Fold change (ACY-1035/veh), VPS36 (ProbeSet 11739960_a_at) / RFU SYPL1 (11715823_x_at) / Fold change /veh SYPL1 (11715823_x_at) / RFU IGFBP7 (11715501_s_at) / Fold change /veh IGFBP7 (11715501_s_at) / RFU REEP3 (11722064_at) / Fold change /veh REEP3 (11722064_at) / RFU IGLL1 (11728026_x_at) / Fold change /veh IGLL1 (11728026_x_at): dose or concentration left out as unconfirmed
Conditions: MV-4-11 cells, 48 hours

Nc1ccc(-c2cccs2)cc1NC(=O)c1ccc2c(c1)cc(C1CC1)n2CCN1CCOCC1 [ACY-1035]
Fold change /veh OR4N2 (11742367_at): 1.06
